Values of other authors as cited in patent publication US20260028295A1, “COMPOSITIONS THAT CONTAIN SUSPENDED DICYANDIAMIDE, AND RELATED METHODS” (Keystone Specialty Chemicals LLC, priority 2022, published 2026).

Conditions: 25 degrees Celsius

Which solubility in water does the source give for `N#CNC(=N)N` [Dicyandiamide] here?
The solubility in water was 4.13 grams per 100 milliliter.
